Results from patent US20170325459A1, “BICYCLIC COMPOUNDS AS PEST CONTROL AGENTS” (Bayer CropScience Aktiengesellschaft, priority 2014, published 2017).

How the values were obtained:
Myzus persicae = Myzus persicae spray test; assay type: in vivo; details: Chinese cabbage leaf discs, after 6 days; for pest or weed control at 500 g/ha: Myzus persicae, foliar, 144 h, read-out: efficacy (aphids killed)
Procedure: Myzus persicae—Spray Test Solvent: 78 parts by weight of acetone • • 1.5 parts by weight of dimethylformamide Emulsifier: alkylaryl polyglycol ether To produce a suitable active ingredient formulation, 1 part by weight of active ingredient is dissolved using the specified parts by weight of solvent and made up with water containing an emulsifier concentration of 1000 ppm until the desired concentration is attained. To produce further test concentrations, the formulation is diluted with emulsifier-containing water. Discs of Chinese cabbage leaves (Brassica pekinensis) infested by all stages of the green peach aphid (Myzus persicae) are sprayed with an active ingredient formulation of the desired concentration. After 6 days, the efficacy in % is determined. 100% means that all the aphids have been killed and 0% means that none of the aphids have been killed.

[1] = log P by HPLC (OECD Guideline 117), method [a] acidic range pH 2.7; assay type: physicochemical; details: for chromatographic logP: reversed-phase (RP) C18 HPLC column
Procedure: (§1) The log P values were determined in accordance with OECD Guideline 117 (EC Directive 92/69/EEC) by HPLC (high-performance liquid chromatography) using reversed-phase (RP) columns (C18), by the following methods: [a] The LC-MS determination in the acidic range is carried out at pH 2.7 with 0.1% aqueous formic acid and acetonitrile (contains 0.1% formic acid) as eluents; linear gradient from 10% acetonitrile to 95% acetonitrile. [b] LC-MS determination in the neutral range is effected at pH 7.8 with 0.001 molar aqueous ammonium hydrogencarbonate solution and acetonitrile as eluents; linear gradient from 10% acetonitrile to 95% acetonitrile. Calibration is effected using unbranched alkan-2-ones (having 3 to 16 carbon atoms) with known log P values (log P values determined on the basis of the retention times by linear interpolation between two successive alkanones).

[2] = log P by HPLC (OECD Guideline 117), method [b] neutral range pH 7.8; assay type: physicochemical; details: for chromatographic logP: reversed-phase (RP) C18 HPLC column
Procedure: as §1

| Compound | logP[a] [1] | logP[b] [2] | chromatographic logP [1] | chromatographic logP [2] | efficacy (aphids killed) (Myzus persicae; application rate 500 g/ha) [%] | pest or weed control at 500 g/ha (Myzus persicae; application rate 500 g/ha) [%] | efficacy (aphids killed) (Myzus persicae; application rate 20 g/ha) [%] |
| --- | --- | --- | --- | --- | --- | --- | --- |
| O=C(NCc1ccccn1)c1ccc2nc(-c3cccnc3)sc2c1 [compound 33, 2-(Pyridin-3-yl)-N-(pyridin-2-ylmethyl)-1,3-benzothiazole-6-carboxamide] |  |  | 1.15 |  |  | 100 |  |
| CN(C(=O)C1CCS(=O)(=O)C1)c1ccc2nc(-c3cccnc3)sc2c1 (stereo not drawn) [compound 82] | 1.49 |  |  |  | 90 |  |  |
| c1cnc(-c2ccn(-c3ccc4nc(-c5cccnc5)sc4c3)n2)nc1 [compound 30, 2-(Pyridin-3-yl)-6-[3-(pyrimidin-2-yl)-1H-pyrazol-1-yl]-1,3-benzothiazole] |  |  |  | 2 |  | 90 |  |
| CSc1nn(-c2ccc3nc(-c4cccnc4)sc3c2)c(=O)n1C [compound 51] | 2.43 | 2.56 |  |  | 100 |  |  |
| CSCCNC(=O)c1ccc2nc(-c3cccnc3)sc2c1 [compound 69, N-[2-(Methylsulphanyl)ethyl]-2-(pyridin-3-yl)-1,3-benzothiazole-6-carboxamide] |  |  | 1.83 |  |  | 90 |  |
| CSCCC(=O)N(C)c1ccc2nc(-c3cncc(F)c3)sc2c1 [compound 79] | 2.64 |  |  |  | 100 |  |  |
| CON(C)C(=O)c1ccc2nc(-c3cccnc3)sc2c1 [compound 65] | 1.64 |  |  |  | 100 |  |  |
| Cn1cnn(-c2ccc3nc(-c4cccnc4)sc3c2)c1=S [compound 46] | 1.35 | 1.49 |  |  | 90 |  |  |
| C[S+]([O-])Cn1cc(-c2ccc3nc(-c4cccnc4)sc3c2)cn1 (stereo not drawn) [compound 39, 6-{1-[(Methylsulphinyl)methyl]-1H-pyrazol-4-yl}-2-(pyridin-3-yl)-1,3-benzothiazole] |  |  | 1.32 | 1.51 |  | 100 |  |
| CNC(=O)c1ccc2nc(-c3cccnc3)sc2c1 [compound 57] | 1.22 |  |  |  | 100 |  |  |
| Cn1c(=O)n(C)n(-c2ccc3nc(-c4cccnc4)sc3c2)c1=O [compound 47] | 1.52 | 1.63 |  |  | 100 |  |  |
| CC(F)(F)CNC(=O)c1ccc2nc(-c3cncc(F)c3)sc2c1 [compound 68] | 2.39 |  |  |  | 100 |  |  |
| CN(C)C(=O)c1ccc2nc(-c3cncc(F)c3)sc2c1 [compound 60] | 1.9 |  |  |  | 100 |  |  |

Continued, in another order:

| logP[a] [1] | logP[b] [2] | chromatographic logP [1] | chromatographic logP [2] | Compound | efficacy (aphids killed) (Myzus persicae; application rate 500 g/ha) [%] | pest or weed control at 500 g/ha (Myzus persicae; application rate 500 g/ha) [%] | efficacy (aphids killed) (Myzus persicae; application rate 20 g/ha) [%] |
| --- | --- | --- | --- | --- | --- | --- | --- |
| 2.62 | 2.71 |  |  | Cc1cnn(-c2ccc3nc(-c4cccnc4)sc3c2)c1 [compound 45] | 90 |  |  |
|  |  | 3.45 | 3.4 | Cc1cc(C)c([S+]([O-])CC(F)(F)F)cc1-c1ccc2nc(-c3cccnc3)sc2c1 (stereo not drawn) [compound 10, 6-{2,4-Dimethyl-5-[(2,2,2-trifluoroethyl)sulphinyl]phenyl}-2-(pyridin-3-yl)-1,3-benzothiazole] |  | 90 |  |
| 4.25 | 4.43 |  |  | Cc1ccc(-c2ccc3nc(-c4cccnc4)sc3c2)cc1 [compound 4] | 100 |  |  |
|  |  | 1.96 |  | O=C(NCC(F)(F)F)c1ccc2nc(-c3cccnc3)sc2c1 [compound 32, 2-(Pyridin-3-yl)-N-(2,2,2-trifluoroethyl)-1,3-benzothiazole-6-carboxamide] |  | 100 |  |
|  |  | 4.18 | 4.22 | Cc1cc(F)c(Nc2ccc3nc(-c4cccnc4)sc3c2)cc1SCC(F)(F)F [compound 20, N-{2-Fluoro-4-methyl-5-[(2,2,2-trifluoroethyl)sulphanyl]phenyl}-2-(pyridin-3-yl)-1,3-benzothiazol-6-amine] |  | 90 |  |
|  |  | 3.33 | 3.33 | Cc1cc(F)c(-c2ccc3nc(-c4cccnc4)sc3c2)cc1[S+]([O-])CC(F)(F)F (stereo not drawn) [compound 12, 6-{2-Fluoro-4-methyl-5-[(2,2,2-trifluoroethyl)sulphinyl]phenyl}-2-(pyridin-3-yl)-1,3-benzothiazole] |  | 90 |  |
| 1.66 | 1.81 |  |  | Cc1nn(-c2ccc3nc(-c4cccnc4)sc3c2)c(=O)n1C [compound 48] | 90 |  |  |
|  |  | 4.96 | 4.97 | Cc1cc(F)c(-c2ccc3nc(-c4cccnc4)sc3c2)cc1SCC(F)(F)F [compound 11, 6-{2-Fluoro-4-methyl-5-[(2,2,2-trifluoroethyl)sulphanyl]phenyl}-2-(pyridin-3-yl)-1,3-benzothiazole] |  | 90 |  |
| 1.22 |  |  |  | CS(=O)(=O)CCC(=O)Nc1ccc2nc(-c3cccnc3)sc2c1 [compound 80] |  |  | 100 |
|  | 3.42 |  |  | FC(F)(F)c1cnn(-c2ccc3nc(-c4cccnc4)sc3c2)c1 [compound 27] | 90 |  |  |
|  |  | 2.36 | 2.47 | FC(F)(F)CNc1ccc2nc(-c3cccnc3)sc2c1 [compound 13, 2-(Pyridin-3-yl)-N-(2,2,2-trifluoroethyl)-1,3-benzothiazol-6-amine] |  | 90 |  |
|  |  | 5.22 | 5.24 | Cc1cc(C)c(-c2ccc3nc(-c4cccnc4)sc3c2)cc1SCC(F)(F)F [compound 9, 6-{2,4-Dimethyl-5-[(2,2,2-trifluoroethyl)sulphanyl]phenyl}-2-(pyridin-3-yl)-1,3-benzothiazole] |  | 90 |  |
|  |  | 4.45 | 4.51 | Cc1cc(C)c(SCC(F)(F)F)cc1Nc1ccc2nc(-c3cccnc3)sc2c1 [compound 18, N-{2,4-Dimethyl-5-[(2,2,2-trifluoroethyl)sulphanyl]phenyl}-2-(pyridin-3-yl)-1,3-benzothiazol-6-amine] |  | 90 |  |
| 1.41 | 1.58 |  |  | Cc1nn(-c2ccc3nc(-c4cccnc4)sc3c2)c(=S)n1C [compound 49] | 90 |  |  |
|  |  | 4.27 | 4.41 | Cc1cccc(-c2ccc3nc(-c4cccnc4)sc3c2)c1 [compound 3, 6-(3-Methylphenyl)-2-(pyridin-3-yl)-1,3-benzothiazole] |  | 90 |  |
